Experimental findings from US8697869B2, “3-(heteroaryl-amino)-1,2,3,4-tetrahydro-9H-carbazole derivatives and their use as prostaglandin D2 receptor modulators” (Actelion Pharmaceuticals Ltd., priority 2010, dated 2014) are described below.

pIC50: −log10 of the molar value.

In assay [1] the target is T1, hCRTH2 receptor (Homo sapiens (Human), UniProt Q9Y5Y4). The assay is described as follows: Radioligand displacement assay in presence of human serum albumin (HSA). The following applies: 3H-PGD2 2.5 nM, Binding-Buffer with 0.5% HSA instead of 0.1% BSA. The method, then: (§1) First, recombinant HEK293-hCRTH2 cells were detached from culture plates into 5 ml buffer A/plate (Buffer A: 5 mM Tris, 1 mM MgCl2-6H2O pH=7.4) using a rubber policeman. Cells were then transferred into centrifugation tubes and centrifuged for 5 min at 400 g. The cell pellet was resuspended in the same buffer and tubes were frozen at −80° C. Cells were thawed and membrane fragments were generated by homogenization using a polytron homogenizer (30 seconds). The membrane fragments were then centrifuged at 3000 g for 20 minutes and resuspended in buffer C (Buffer C: 75 mM Tris, 25 mM MgCl2, 250 mM Saccharose pH 7.4). Aliquots of membrane fragements were stored at −20° C.
T1 sequence (Q9Y5Y4 whole entry, the tested form may be a part): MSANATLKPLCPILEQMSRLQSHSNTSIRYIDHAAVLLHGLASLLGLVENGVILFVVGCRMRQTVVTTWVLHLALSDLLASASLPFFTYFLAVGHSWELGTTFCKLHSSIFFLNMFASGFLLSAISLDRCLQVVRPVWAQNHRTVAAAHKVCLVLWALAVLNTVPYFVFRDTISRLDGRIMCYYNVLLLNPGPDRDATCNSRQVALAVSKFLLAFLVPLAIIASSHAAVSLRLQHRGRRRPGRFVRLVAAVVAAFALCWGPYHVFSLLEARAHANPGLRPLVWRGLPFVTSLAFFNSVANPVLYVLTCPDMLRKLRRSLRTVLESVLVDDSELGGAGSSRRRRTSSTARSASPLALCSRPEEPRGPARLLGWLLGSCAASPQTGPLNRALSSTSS
(§2) Binding assay was performed in a final assay volume of 250 μl. First, 25 μl of test compound, previously diluted in Binding-Buffer (Binding-Buffer: 50 mM Tris-Base, 100 mM NaCl, 1 mM EDTA, 0.1% BSA (protease free), 0.01% NaN3, 10 mM MnCl2 pH 7.0) was placed into each well. After addition of 75 μl Binding-Buffer, 50 μl of the radioligand ^3H-PGD2 (at 2.5 nM (220.000 dpm/well) from ANAWA ART0662) was added to each well. Binding assay was started by addition of 100 μl CRTH2 membrane fragments, reaching a final concentration of 20 μg/well. For non-specific binding, PGD2 was added to the reaction mixture to […] final concentration. This assay mix was incubated for 90 minutes at room temperature and then filtered through a GF/C filter 96-well plate which was pre-soaked for 3 hours in 0.5% polyethyleneimine (PEI). The filter-wells were washed three times with ice cold Binding-Buffer. Then, 40 μl of Microscint-40 (Packard) was added to each well and the retained radioactivity quantified in a Topcount (Packard).
Radioligand Displacement Assay-Human Serum Albumin (HSA):
Radioligand displacement assay in presence of human serum albumin (HSA) was performed as described above, with following modifications. Binding-Buffer-HSA: Binding-buffer+0.5% Sigma Albumin from Human serum A1887 (instead of 0.1% BSA). A volume of 25 μl test compound, previously diluted in Binding-Buffer-HSA was placed into each well. After addition of 75 μl Binding-Buffer-HSA, 50 μl of ^3H-PGD2 (at 2.5 nM (220.000 dpm/well) from ANAWA ART0662) was added to each well. Remaining protocol was identical as described above.
Background: Loss of bound radioactivity is the signal in a displacement assay; it reports binding, not function.

In assay [2] the target is T1, hCRTH2 receptor. The assay can be described thus: hCRTH2 receptor membranes radioligand displacement assay (3H-PGD2). The following applies: 3H-PGD2 2.5 nM, HEK293-hCRTH2 membranes, Binding-Buffer with 0.1% BSA. On the procedure: Biological Assays: Preparation of hCRTH2 Receptor Membranes and Radioligand Displacement Assay:
as §1, §2

Assay [3] concerns eosinophils. The assay can be described thus: Eosinophil shape change assay with human plasma. It is filed as cell-based. The conditions noted are these: human polymorphonuclear cells, 50% human plasma, activated with 100 nM PGD2. The method, then: After obtaining informed consent, blood samples were drawn by venipuncture according to the protocol approved by the ethics committee of Basel, Switzerland. Polymorphonuclear leukocytes (containing eosinophils, basophils and neutrophils) were isolated using the Polymorphprep™ method (Axis-Shield). In brief, anticoagulated whole blood was layered onto a Polymorphprep gradient (density 1.113 g/ml) and centrifuged at 500 g for 30 min. The polymorphonuclear cell fraction was harvested and depleted for erythrocytes by hypotonic saline lysis.
The polymorphonuclear cells were resuspended in assay buffer (1×PBS with Ca^2+/Mg^2+ supplemented with 0.1% BSA, 10 mM HEPES, and 10 mM Glucose, pH 7.4) at 5×10^6 cells/ml and stained with anti-CD49d-APC ((APC=Allophycocyanin) for 1 hour at RT. Test compounds, at various concentrations, were preincubated 10 min in human plasma (anticoagulated with a thrombin inhibitor). Then, human plasma was added to the polymorphonuclear cells to 50% of final assay volume with polymorphonuclear cells at 4×10^6 cells/rd. After incubation for 10 minutes at 37° C., the polymorphonuclear cells were activated for 5 min at 37° C. by addition of PGD2 at 100 nM final concentration. Activation was stopped by addition of 0.5 ml paraformaldehyde (1%).
Immediately after fixation with paraformaldehyde, the samples were analyzed by FACSCanto flow cytometer (BD Biosciences) and target cells were identified by their forward-scatter (FSC) and side-scatter (SSC) characteristics. Eosinophils were identified by the anti-CD49d-APC signal and their characteristic side-scatter (SSC) profile. Shape change responses, indicative of eosinophil activation, were quantified as the percent of cells with an increased forward-scatter.

As a reminder, the pIC50 is the IC50 on a negative log10 scale, so that one unit is a factor of ten. As to `CN(c1ncc(F)cn1)[C@H]1CCc2c(c3cc(F)ccc3n2CC(=O)O)C1` [Example 7, (3S)-2-(6-fluoro-3-((5-fluoropyrimidin-2-yl)(methyl)amino)-3,4-dihydro-1H-carbazol-9(2H)-yl)acetic acid], the results for the negative logarithm of the IC50 (pIC50) in assay [1], in assay [2] and in assay [3] (Eosinophil) were 8.15, 8.60 and 8.10, respectively.

As to `CN(c1nc2cc(F)ccc2s1)[C@H]1CCc2c(c3cc(F)ccc3n2CC(=O)O)C1` [Example 39, (3S)-2-(6-fluoro-3-((5-fluorobenzo[d]thiazol-2-yl)(methyl)amino)-3,4-dihydro-1H-carbazol-9(2H)-yl)acetic acid], the pIC50 in assay [1] is 8.22; in assay [2] it was 8.51; in assay [3] (Eosinophil), 7.80.

As to `CN(c1nc2ccc(F)cc2o1)[C@H]1CCc2c(c3cc(F)ccc3n2CC(=O)O)C1` [Example 43, (3S)-2-(6-fluoro-3-((6-fluorobenzo[d]oxazol-2-yl)(methyl)amino)-3,4-dihydro-1H-carbazol-9(2H)-yl)acetic acid], the values for the pIC50 in assay [1], in assay [2] and in assay [3] (Eosinophil) were 7.92, 8.34 and 8.22, respectively.

In the case of `CN(c1nc2ccc(F)cc2s1)[C@H]1CCc2c(c3cc(F)ccc3n2CC(=O)O)C1` [Example 38, (3S)-2-(6-fluoro-3-((6-fluorobenzo[d]thiazol-2-yl)(methyl)amino)-3,4-dihydro-1H-carbazol-9(2H)-yl)acetic acid], the results for the pIC50 in assay [1], in assay [2] and in assay [3] (Eosinophil) were 8.05, 8.92 and 8.70, respectively.

As for `O=C(O)Cn1c2c(c3cc(F)ccc31)C[C@@H](Nc1ncc(Cl)cn1)CC2` [Example 3, (3S)-2-(6-fluoro-3-((5-chloropyrimidin-2-yl)amino)-3,4-dihydro-1H-carbazol-9-(2H)-yl)acetic acid], the pIC50 was 7.64 in assay [1], 8.34 in assay [2] and 7.39 in assay [3].

As to `CCCN(c1ncc(Cl)cn1)[C@H]1CCc2c(c3cc(F)ccc3n2CC(=O)O)C1` [Example 25, (3S)-2-(3-((5-chloropyrimidin-2-yl)(propyl)amino)-6-fluoro-3,4-dihydro-1H-carbazol-9(2H)-yl)acetic acid], the pIC50 was 7.77 in assay [1], 8.41 in assay [2] and 7.89 in assay [3] (Eosinophil).

In the case of `O=C(O)Cn1c2c(c3cc(F)ccc31)C[C@H](Nc1ncc(Cl)cn1)CC2` [Example 4, (3R)-2-(6-fluoro-3-((5-chloropyrimidin-2-yl)amino)-3,4-dihydro-1H-carbazol-9-(2H)-yl)acetic acid], the pIC50 was 7.57 in assay [1], 7.89 in assay [2] and 6.14 in assay [3].

As for `CN(c1ncc(C2CC2)cn1)[C@H]1CCc2c(c3cc(F)ccc3n2CC(=O)O)C1` [Example 42, (3S)-2-(3-((5-cyclopropylpyrimidin-2-yl)(methyl)amino)-6-fluoro-3,4-dihydro-1H-carbazol-9(2H)-yl)acetic acid], the pIC50 in assay [1] is 7.44; in assay [2] it was 8.66; in assay [3] (Eosinophil), 7.72.

Take `O=C(O)Cn1c2c(c3cc(F)ccc31)C[C@@H](N(CC1CC1)c1ncc(Cl)cn1)CC2` [Example 27, (3S)-2-(3-((5-chloropyrimidin-2-yl)(cyclopropylmethyl)amino)-6-fluoro-3,4-dihydro-1H-carbazol-9(2H)-yl)acetic acid]: the values for the pIC50 in assay [1], in assay [2] and in assay [3] (Eosinophil) were 8.22, 8.77 and 7.85, respectively.

For `CCN(c1ncc(Cl)cn1)[C@H]1CCc2c(c3cc(F)ccc3n2CC(=O)O)C1` [Example 24, (3S)-2-(3-((5-chloropyrimidin-2-yl)(ethyl)amino)-6-fluoro-3,4-dihydro-1H-carbazol-9(2H)-yl)acetic acid], the pIC50 in assay [1] is 7.72; in assay [2] it was 8.77; in assay [3] (Eosinophil), 7.43.

Turning to `CN(c1nc2ccc(Cl)cc2s1)[C@H]1CCc2c(c3cc(F)ccc3n2CC(=O)O)C1` [Example 32, (3S)-2-(3-((6-chlorobenzo[d]thiazol-2-yl)(methyl)amino)-6-fluoro-3,4-dihydro-1H-carbazol-9(2H)-yl)acetic acid], the pIC50 was 7.70 in assay [1], 8.17 in assay [2] and 7.48 in assay [3] (Eosinophil).
